The text below walks through data of publication PMC10778626, “Efficacy of Novel Quaternary Ammonium and Phosphonium Salts Differing in Cation Type and Alkyl Chain Length against Antibiotic-Resistant Staphylococcus aureus” (International Journal of Molecular Sciences, 2023).

The structures appear in SMILES notation. Where two headings read alike, the source gives them in different places.

The nature of series [1]: Chromatographic hydrophobicity index (CHI) by UHPLC. Type of series: physicochemical. As to conditions: for CHI: LC/UV at pH 2.6, calculated from retention time with the calibration line; for chromatographic logP: back-calculated from CHI at pH 2.6: CHI LogP = 0.047 × CHI + 0.36 × HBC − 1.10. The protocol:
The chromatographic hydrophobicity index (CHI) values were determined using the retention times (tR) of the samples under study and of a mixture of standard compounds on a UHPLC NEXERA SERIES LC-40 with a Luna C18 (2) column of 150 × 4.6 mm, 5 μm (Phenomenex, Torrance, CA, USA). Stock solutions of the test compounds (10 mM) were prepared in dimethyl sulfoxide (DMSO, 99.9%; Carlo Erba) and diluted in acetonitrile/water (1:1) to obtain a final concentration of 500 μM. The mobile phase A was 1.0% (v/v) aqueous acetic acid solution (pH = 2.6), and the mobile phase B was acetonitrile. The following gradient programme was applied: 1–7 min 0–100% B, 7–17 min 100% B, 17–19 min 100–0% B, 1 mL/min flow; rt, injection volume 40 μL.
A calibration line was obtained using a mixture of the following compounds: benzimidazole, theophylline, paracetamol, caffeine, colchicine, carbamazepine, indole, propiophenone, butyrophenone, valerophenone, and heptanophenone (Table S1 and Figure S50, Supplementary Materials). The experimental CHI values of the compounds tested at pH 2.6 were then converted to the logarithm of octanol/water partition coefficient (CHI LogP) values using Equation (1). CHI LogP = 0.047 × CHI + 0.36 × HBC − 1.10 (1) where HBC is the hydrogen bond donor count.

For a further series, the system named is S. aureus CECT 976. The series can be described thus: MIC/MBC by broth microdilution, S. aureus CECT 976. Type of series: cell-based. Particulars: Staphylococcus aureus. Here is the method:
The minimum inhibitory concentration (MIC) and minimum bactericidal concentration (MBC) values of all QHSs were determined by the broth microdilution method, according to the approved M7-A7 (aerobes) standards of the Clinical and Laboratory Standards Institute (CLSI) guidelines. Overnight cell cultures of S. aureus, in the exponential phase of growth, were adjusted to an optical density (OD) of 0.132 ± 0.02 (λ = 600 nm). Then, a volume of 180 µL of the cell suspension was added to sterile, flat, clear-bottomed polystyrene (PS) 96-well microtiter plates (VWR—Radnor, PA, USA), already containing 20 µL of each QHS under study at concentrations ranging from 0.0625 to 64 µg/mL. In the end, the volume of each compound never exceeded 10% (v/v) of the well volume. Microtiter plates were then incubated for 24 h at 37 °C under agitation (150 rpm; INCU-Line IL 150R incubator). Absorbance measurements were performed at the beginning (t = 0 h) and end (t = 24 h) of the incubation period using a microtiter plate absorbance reader (BMG LABTECH FLUOstar Omega). Bacterial suspensions with DMSO and without QHSs were used as negative controls. […] All tests were performed with six replicates and a minimum of three independent repeats.
Plates were incubated at 37 °C for 24 h, and growth was visually inspected. […] All tests were performed in triplicate, and with a minimum of three independent repeats.

[2] abbreviates: CECT976, S. aureus CECT 976, broth microdilution, 24 h, 37 °C, read-out: MIC.
Setting [3] is: CECT976, S. aureus CECT 976, broth microdilution, plated on PCA, read-out: MBC.

With `CCCCCCCCCC[n+]1ccccc1.[Br-]` [Compound 6c, 1-Decylpyridin-1-ium bromide], in series [1], the CHI is listed as 53.07 and the chromatographic logP was 1.4. Besides, in the series on S. aureus CECT 976 (setting [2]), the minimum inhibitory concentration (MIC) worked out at 32 µg/mL. Further, the MBC in the series on S. aureus CECT 976 (setting [3]) is greater than 64 µg/mL.

Turning to `CCCCCCCC[n+]1ccc(C)cc1.[Br-]` [Compound 4b, 4-Methyl-1-octylpyridin-1-ium bromide], in series [1], the CHI is recorded as 43.90 and the chromatographic logP is 0.963. For the same compound, the minimal inhibitory concentration (MIC) in the series on S. aureus CECT 976 (setting [2]) is greater than 64 µg/mL. In addition, the MBC in the series on S. aureus CECT 976 (setting [3]) was greater than 64 µg/mL.

Regarding `CCCCCCCC[P+](c1ccccc1)(c1ccccc1)c1ccccc1` [Compound 1b, Octyltriphenylphosphonium bromide], in series [1], the CHI is recorded as 71.06 and the chromatographic logP is 2.24. For the same compound, the MIC with S. aureus CECT 976 (setting [2]) was 2 µg/mL. Moreover, the MBC in the series with S. aureus CECT 976 (setting [3]) was 16 µg/mL.

For the compound `CCCCCCCCCCCCCCCCCC[n+]1ccc2ccccc2c1` [Compound 3g], in series [1], the CHI is listed as 113.1 and the chromatographic logP is 4.21. In addition, the minimal inhibitory concentration (MIC) in the series on S. aureus CECT 976 (setting [2]) is 8 µg/mL. In addition, the MBC with S. aureus CECT 976 (setting [3]) was determined as 16 µg/mL.

As for `CCCCCCCC[n+]1ccn(C)c1.[Br-]` [Compound 2b, 1-Methyl-3-octyl-1H-imidazol-3-ium bromide], in series [1], the CHI is 42.19 and the chromatographic logP was 0.883. In addition, the minimal inhibitory concentration (MIC) in the series with S. aureus CECT 976 (setting [2]) was greater than 64 µg/mL. The MBC in the series on S. aureus CECT 976 (setting [3]) was greater than 64 µg/mL.

With `CCCCCCCCCCCC[n+]1ccc2ccccc2c1.[Br-]` [Compound 3d, 2-Dodecylisoquinolin-2-ium bromide], in series [1], the CHI was 74.48 and the chromatographic logP is 2.4. The MIC with S. aureus CECT 976 (setting [2]) is 2 µg/mL. In the series on S. aureus CECT 976 (setting [3]), the minimal bactericidal concentration (MBC) stood at 16 µg/mL.

With `CCCCCCCCCCCCCCCC[n+]1ccc2ccccc2c1.[Br-]` [Compound 3f, 2-Hexadecylisoquinolin-2-ium bromide], in series [1], the CHI was 100.8 and the chromatographic logP was 3.64. The minimal inhibitory concentration (MIC) in the series with S. aureus CECT 976 (setting [2]) was found to be 4 µg/mL. The MBC with S. aureus CECT 976 (setting [3]) turned out to be 8 µg/mL.

`CCCCCC[n+]1ccc2ccccc2c1.[Br-]` [Compound 3a, 2-Hexylisoquinolin-2-ium bromide]: in series [1], the CHI was 37.81 and the chromatographic logP was 0.677. The minimal inhibitory concentration (MIC) in the series with S. aureus CECT 976 (setting [2]) was greater than 64 µg/mL. The MBC in the series on S. aureus CECT 976 (setting [3]) was greater than 64 µg/mL.

With `CCCCCCCCCCCCCCCCCC[n+]1ccccc1.[Br-]` [Compound 6g, 1-Octadecylpyridin-1-ium bromide], in series [1], the CHI is given as 108.1 and the chromatographic logP was 3.98. Moreover, the minimum inhibitory concentration (MIC) in the series with S. aureus CECT 976 (setting [2]) was found to be 8 µg/mL. The MBC with S. aureus CECT 976 (setting [3]) was determined as 16 µg/mL.

Consider `CCCCCCCCCCCC[P+](c1ccccc1)(c1ccccc1)c1ccccc1` [Compound 1d, Dodecyltriphenylphosphonium bromide], for which, in series [1], the CHI is reported as 94.50 and the chromatographic logP is 3.34. The minimum bactericidal concentration (MBC) against S. aureus CECT 976 (CECT976) is 16 µg/mL. For the same compound, in the series with S. aureus CECT 976 (CECT976, 24 h), inhibition of growth (MIC) required 1 µg/mL.

Regarding `CCCCCCCCCC[P+](c1ccccc1)(c1ccccc1)c1ccccc1` [Compound 1c, Decyltriphenylphosphonium bromide], in series [1], the CHI is on record as 82.58 and the chromatographic logP is 2.78. In the series with S. aureus CECT 976 (setting [2]), the minimal inhibitory concentration (MIC) was found to be 1 µg/mL. For the same compound, in the series on S. aureus CECT 976 (setting [3]), the MBC was 8 µg/mL.

For `CCCCCCCCCCCCCCCC[n+]1cccc2ccccc21.[Br-]` [Compound 5f, 1-Hexadecylquinolin-1-ium bromide], in series [1], the CHI is reported as 101.1 and the chromatographic logP is 3.65. Moreover, in the series with S. aureus CECT 976 (setting [2]), the MIC turned out to be 4 µg/mL. The MBC in the series with S. aureus CECT 976 (setting [3]) was determined as 8 µg/mL.

As a reminder, the chromatographic logP is lipophilicity estimated from chromatographic retention. Usually MIC stands for the least concentration at which growth counts as inhibited. The term MBC denotes the smallest concentration meeting the test's criterion for killing.
